{"source": "patent US20120214862A1", "about": "“MODULATION OF FACTOR 7 EXPRESSION” (ISIS Pharmaceuticals, Inc., priority 2009, published 2012)", "note": "In the oligonucleotide strings, read from the 5' end, every base follows the letter of its sugar. An asterisk marks phosphorothioate; unmarked linkages are phosphodiester. Other units and linkages are bracketed, terminal groups are in braces. A string of capitals states the bases alone. e = 2'-O-(2-methoxyethyl) (MOE); [5mC] = 5-methylcytosine; d = 2'-deoxy (DNA)", "data": [{"test_system": "human Factor 7 mRNA", "experiment": "Inhibition of human Factor 7 mRNA by 2-10-2 MOE shortmers in HepB3 cells, electroporation, 1,000 nM", "assay_type": "cell-based", "settings": "electroporation, 1,000 nM oligonucleotide, approximately 24 hours, relative to untreated control cells", "in_short": "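14-mer 2-10-2 2′-MOE gapmers, full phosphorothioate, 5-methylcytidines, electroporated at 1,000 nM into HepB3 cells (20,000/well). After ~24 h, mRNA quantified by real-time RT-PCR, normalized to RIBOGREEN total RNA; percent inhibition relative to untreated cells.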", "units": {"% inhibition of human Factor 7 mRNA": "%"}, "values": [{"substance": "435827 (antisense eT*e[5mC]*dA*dG*dA*dA*dA*dG*dA*dT*dG*d[5mC]*eA*eG) [compound 435827]", "% inhibition of human Factor 7 mRNA": 5}, {"substance": "435668 (antisense eT*eG*d[5mC]*d[5mC]*dA*dT*dG*dG*dA*d[5mC]*dA*d[5mC]*eT*e[5mC]) [compound 435668]", "% inhibition of human Factor 7 mRNA": 75}, {"substance": "435799 (antisense e[5mC]*eT*dG*dG*dT*d[5mC]*d[5mC]*d[5mC]*d[5mC]*dA*dT*d[5mC]*eT*eG) [compound 435799]", "% inhibition of human Factor 7 mRNA": 33}, {"substance": "435673 (antisense eA*eG*dA*d[5mC]*d[5mC]*dA*d[5mC]*d[5mC]*d[5mC]*dA*dG*dA*eT*eG) [compound 435673]", "% inhibition of human Factor 7 mRNA": 34}, {"substance": "435675 (antisense eT*eG*dT*d[5mC]*dG*dA*dA*dA*d[5mC]*dA*dG*dT*eG*eG) [compound 435675]", "% inhibition of human Factor 7 mRNA": 24}, {"substance": "435735 (antisense eT*eG*dG*dT*dG*dA*dT*dG*d[5mC]*dT*dT*d[5mC]*eT*eG) [compound 435735]", "% inhibition of human Factor 7 mRNA": 81}, {"substance": "435844 (antisense eT*eG*dG*d[5mC]*d[5mC]*dA*dG*dT*dG*dG*d[5mC]*d[5mC]*eT*e[5mC]) [compound 435844]", "% inhibition of human Factor 7 mRNA": 30}, {"substance": "435809 (antisense e[5mC]*eT*dG*dA*d[5mC]*dA*dA*dT*dG*dT*dG*dA*eT*eG) [compound 435809]", "% inhibition of human Factor 7 mRNA": 5}, {"substance": "435732 (antisense eG*eA*dA*dA*dA*dG*dT*dG*dA*dG*dA*dG*e[5mC]*eT) [compound 435732]", "% inhibition of human Factor 7 mRNA": 0}, {"substance": "435495 (antisense eG*eA*dG*dA*d[5mC]*d[5mC]*d[5mC]*dT*dG*dG*dT*dG*eT*eA) [compound 435495]", "% inhibition of human Factor 7 mRNA": 27}, {"substance": "435845 (antisense eG*e[5mC]*dT*d[5mC]*dA*dT*dG*dG*d[5mC]*dA*dG*dA*e[5mC]*eA) [compound 435845]", "% inhibition of human Factor 7 mRNA": 21}, {"substance": "435646 (antisense eT*eA*dG*dG*dA*d[5mC]*dT*dG*dG*dA*dG*d[5mC]*eT*eG) [compound 435646]", "% inhibition of human Factor 7 mRNA": 13}, {"substance": "435755 (antisense eG*eG*dG*dA*d[5mC]*dT*d[5mC]*dA*dG*d[5mC]*dA*dA*eG*eA) [compound 435755]", "% inhibition of human Factor 7 mRNA": 0}, {"substance": "435642 (antisense eA*e[5mC]*dA*d[5mC]*dT*dG*dG*dT*d[5mC]*d[5mC]*d[5mC]*d[5mC]*eA*eT) [compound 435642]", "% inhibition of human Factor 7 mRNA": 60}, {"substance": "435679 (antisense e[5mC]*eG*d[5mC]*dT*dG*dA*dG*dG*dT*d[5mC]*dG*dT*eG*e[5mC]) [compound 435679]", "% inhibition of human Factor 7 mRNA": 62}, {"substance": "435819 (antisense eT*eT*dT*dG*dT*d[5mC]*d[5mC]*dA*dG*dT*dA*dA*eG*eA) [compound 435819]", "% inhibition of human Factor 7 mRNA": 1}, {"substance": "435652 (antisense e[5mC]*eT*dG*dG*dT*d[5mC]*dA*dT*d[5mC]*d[5mC]*dT*dT*eG*eT) [compound 435652]", "% inhibition of human Factor 7 mRNA": 48}, {"substance": "435499 (antisense e[5mC]*eT*dG*dG*dG*dA*dG*dA*d[5mC]*d[5mC]*d[5mC]*dT*eG*eG) [compound 435499]", "% inhibition of human Factor 7 mRNA": 59}, {"substance": "435791 (antisense eA*eT*dG*dA*dG*dA*dA*dA*dT*dG*d[5mC]*dT*eT*eT) [compound 435791]", "% inhibition of human Factor 7 mRNA": 0}, {"substance": "435851 (antisense eA*e[5mC]*dA*dG*dG*d[5mC]*d[5mC]*dA*dG*dG*d[5mC]*dT*eG*eG) [compound 435851]", "% inhibition of human Factor 7 mRNA": 0}, {"substance": "435792 (antisense eT*eG*d[5mC]*dT*dG*dA*dA*dG*dA*dA*dA*d[5mC]*eT*eG) [compound 435792]", "% inhibition of human Factor 7 mRNA": 9}, {"substance": "435840 (antisense eG*eG*dG*d[5mC]*d[5mC]*d[5mC]*dG*d[5mC]*d[5mC]*dA*d[5mC]*dT*eG*eG) [compound 435840]", "% inhibition of human Factor 7 mRNA": 0}, {"substance": "435481 (antisense eG*eG*dG*dT*d[5mC]*dA*dT*d[5mC]*dA*dG*d[5mC]*d[5mC]*eG*eG) [compound 435481]", "% inhibition of human Factor 7 mRNA": 50}, {"substance": "435683 (antisense eA*eT*dG*dT*d[5mC]*dG*dT*dG*dG*dT*dT*dG*eG*eT) [compound 435683]", "% inhibition of human Factor 7 mRNA": 3}]}]}
